Reference: paper PMC9287434, “Inhibition of NMDA receptors through a membrane-to-channel path” (Nature Communications, 2022)
Where a name gives a salt, the structure may show the parent alone.

What was measured:
cultured neurons = tested on: cultured neurons; set-up: method as in PMID 8570022; conditions: cultured neurons held at −70 mV; read-out: IC50 (previous value); cited from earlier work
GluN1/2A receptors [1] = target: T1, GluN1/2A receptors (Rattus norvegicus, UniProt P35439+Q00959); experiment: Traditional channel block (coapplication of drug and agonists), tsA201 cells; type: cell-based
T1 construct: expressed in transfected cells; host or cells: tsA201 cells (HEK 293 variant)
Method: (§1) Wildtype or mutant GluN1/2A receptors were used for all tsA201 cell experiments. 12–24 h after plating, tsA201 cells were transiently co-transfected using FuGENE6 Transfection Reagent (Promega) with mammalian expression plasmids that contained cDNAs encoding enhanced green fluorescent protein (EGFP in pRK7) for identification of transfected cells, the rat GluN1-1a subunit (referred to as GluN1; GenBank X63255 in pcDNA3.1), and the rat GluN2A subunit (GenBank M91561 in pcDNA1). For some experiments cells were transfected with GluN1 and EGFP:pIRES:GluN2A (a generous gift from Dr. Kasper Hansen (Hansen, unpublished)), which was constructed by inserting EGFP in pIRES (Clontech) under transcriptional control of the CMV promoter, and rat GluN2A cDNA (GenBank D13211) after the IRES sequence. Voltage clamp recordings were performed on tsA201 cells 12–48 h after transfection.
(§2) Pipettes were pulled from borosilicate capillary tubing (Sutter Instruments) on a Flaming Brown P-97 microelectrode puller (Sutter Instruments) and polished with a heated filament to a resistance of 2–5 MΩ. Whole-cell recordings were made from cells expressing eGFP identified by epifluorescence illumination on an inverted Zeiss Axiovert microscope. Cells were held at a Vm of −65 mV (corrected for a liquid junction potential of −6 mV) unless otherwise indicated. Whole-cell currents were recorded using an Axopatch 200B patch-clamp amplifier (Molecular Devices). Series resistance was compensated 80–90% using the prediction and correction circuitry. […] NMDAR responses were activated by fast perfusion of 1 mM glutamate (tsA201 cells) or 100 μM NMDA (cultured neurons).

GluN1/2A receptors [2] = target: T1, GluN1/2A receptors; experiment: MCI protocol, whole-cell recording from GluN1/2A NMDAR-expressing tsA201 cells; type: cell-based
Method: as §1, §2
Solutions were delivered to cells using a ten-barrel fast perfusion system. […] If channel blocker remained in the extracellular solution after the 1-s wash, measurements of MCI could have been contaminated by inhibition due to traditional open channel block.
We averaged minima of IControl2/IControl1 and IControl1/IControl2 to control for any possible rundown or runup of NMDAR response. For pH jump experiments, to control also for possible delayed effects of the pH jump on NMDAR responses, the minimum IMCI/IControl value was measured using an additional set of experiments.

[3] = tested on: native NMDARs in cultured neurons; experiment: MCI protocol, neurons in primary culture; type: cell-based, rat; conditions: 1 μM MK-801, pH 7.2, cultured neurons, 100 μM NMDA
NMDARs = conditions: cited from earlier work
[4] = target: T2, GluN1/2A(M630A) receptors (Rattus norvegicus, UniProt P35439+Q00959, M630A); experiment: MCI protocol, GluN1/2A(M630A)
[5] = target: T2, GluN1/2A(M630A) receptors; experiment: Traditional [memantine]-inhibition curve, GluN1/2A(M630A)
[6] = target: T3, GluN1/2A(M630W) receptors (Rattus norvegicus, UniProt P35439+Q00959, M630W); experiment: Traditional [memantine]-inhibition curve, GluN1/2A(M630W)
[7] = set-up: method as in PMID 7086822; conditions: measured pKa; cited from earlier work
[8] = pKa, charged/uncharged fraction in aqueous solution; type: physicochemical
From the text: [36]). […] We tested this prediction by measuring the dependence of MCI on extracellular pH. A similar approach was used to study membrane partitioning of local anesthetics during VGSC inhibition[23],[24],[27].

[9] = tested on: native NMDARs in cultured neurons; conditions: cited from earlier work
[10] = cited from earlier work
NMDAR = conditions: 30 μM intracellular memantine; cited from earlier work
[11] = target: T3, GluN1/2A(M630W) receptors; experiment: MCI protocol, GluN1/2A(M630W)
[12] = pH 7.2, WT, −65 mV, read-out: traditional IC50
[13] = constant pH 9.0, 1 mM TMM, 165 μM DMM

T1 sequence (Q00959 23-1464, other chains not shown): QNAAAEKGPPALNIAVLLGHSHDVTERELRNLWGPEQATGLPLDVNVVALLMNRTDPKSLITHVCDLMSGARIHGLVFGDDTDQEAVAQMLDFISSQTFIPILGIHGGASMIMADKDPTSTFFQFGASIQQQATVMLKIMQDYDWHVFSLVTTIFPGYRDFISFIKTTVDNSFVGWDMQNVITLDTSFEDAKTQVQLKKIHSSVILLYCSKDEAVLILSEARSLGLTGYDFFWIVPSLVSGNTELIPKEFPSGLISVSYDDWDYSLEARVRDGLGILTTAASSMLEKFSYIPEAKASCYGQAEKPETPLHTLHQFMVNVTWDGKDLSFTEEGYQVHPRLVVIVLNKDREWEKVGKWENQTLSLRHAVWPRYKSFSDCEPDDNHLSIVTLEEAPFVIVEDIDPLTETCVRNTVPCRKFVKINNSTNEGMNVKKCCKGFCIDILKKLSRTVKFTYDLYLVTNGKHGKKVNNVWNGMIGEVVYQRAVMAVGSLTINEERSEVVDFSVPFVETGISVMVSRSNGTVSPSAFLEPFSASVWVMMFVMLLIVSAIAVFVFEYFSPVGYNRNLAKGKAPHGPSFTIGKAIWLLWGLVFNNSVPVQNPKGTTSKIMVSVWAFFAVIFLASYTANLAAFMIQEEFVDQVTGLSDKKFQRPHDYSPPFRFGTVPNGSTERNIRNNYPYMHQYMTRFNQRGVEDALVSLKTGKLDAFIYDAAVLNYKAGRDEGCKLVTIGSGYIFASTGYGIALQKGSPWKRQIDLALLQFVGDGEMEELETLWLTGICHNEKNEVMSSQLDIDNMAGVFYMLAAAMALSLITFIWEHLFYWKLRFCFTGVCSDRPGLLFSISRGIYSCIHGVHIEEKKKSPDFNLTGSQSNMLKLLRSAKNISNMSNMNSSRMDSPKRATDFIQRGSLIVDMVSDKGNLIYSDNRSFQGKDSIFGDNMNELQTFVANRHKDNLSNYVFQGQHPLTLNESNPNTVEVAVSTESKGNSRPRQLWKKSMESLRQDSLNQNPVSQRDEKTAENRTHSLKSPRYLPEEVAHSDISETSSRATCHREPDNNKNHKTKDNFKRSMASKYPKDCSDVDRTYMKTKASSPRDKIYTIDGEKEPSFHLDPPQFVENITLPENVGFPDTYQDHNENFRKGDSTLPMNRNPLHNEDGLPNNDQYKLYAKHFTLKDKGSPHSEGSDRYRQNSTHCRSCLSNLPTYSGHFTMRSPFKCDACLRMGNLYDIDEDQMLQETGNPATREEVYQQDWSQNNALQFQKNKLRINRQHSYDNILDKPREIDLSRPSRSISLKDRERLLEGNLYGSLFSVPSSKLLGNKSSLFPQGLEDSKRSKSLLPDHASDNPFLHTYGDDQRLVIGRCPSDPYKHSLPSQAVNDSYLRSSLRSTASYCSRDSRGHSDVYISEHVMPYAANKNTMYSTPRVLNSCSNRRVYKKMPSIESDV
T2 sequence (Q00959 23-1464 M630A, other chains not shown): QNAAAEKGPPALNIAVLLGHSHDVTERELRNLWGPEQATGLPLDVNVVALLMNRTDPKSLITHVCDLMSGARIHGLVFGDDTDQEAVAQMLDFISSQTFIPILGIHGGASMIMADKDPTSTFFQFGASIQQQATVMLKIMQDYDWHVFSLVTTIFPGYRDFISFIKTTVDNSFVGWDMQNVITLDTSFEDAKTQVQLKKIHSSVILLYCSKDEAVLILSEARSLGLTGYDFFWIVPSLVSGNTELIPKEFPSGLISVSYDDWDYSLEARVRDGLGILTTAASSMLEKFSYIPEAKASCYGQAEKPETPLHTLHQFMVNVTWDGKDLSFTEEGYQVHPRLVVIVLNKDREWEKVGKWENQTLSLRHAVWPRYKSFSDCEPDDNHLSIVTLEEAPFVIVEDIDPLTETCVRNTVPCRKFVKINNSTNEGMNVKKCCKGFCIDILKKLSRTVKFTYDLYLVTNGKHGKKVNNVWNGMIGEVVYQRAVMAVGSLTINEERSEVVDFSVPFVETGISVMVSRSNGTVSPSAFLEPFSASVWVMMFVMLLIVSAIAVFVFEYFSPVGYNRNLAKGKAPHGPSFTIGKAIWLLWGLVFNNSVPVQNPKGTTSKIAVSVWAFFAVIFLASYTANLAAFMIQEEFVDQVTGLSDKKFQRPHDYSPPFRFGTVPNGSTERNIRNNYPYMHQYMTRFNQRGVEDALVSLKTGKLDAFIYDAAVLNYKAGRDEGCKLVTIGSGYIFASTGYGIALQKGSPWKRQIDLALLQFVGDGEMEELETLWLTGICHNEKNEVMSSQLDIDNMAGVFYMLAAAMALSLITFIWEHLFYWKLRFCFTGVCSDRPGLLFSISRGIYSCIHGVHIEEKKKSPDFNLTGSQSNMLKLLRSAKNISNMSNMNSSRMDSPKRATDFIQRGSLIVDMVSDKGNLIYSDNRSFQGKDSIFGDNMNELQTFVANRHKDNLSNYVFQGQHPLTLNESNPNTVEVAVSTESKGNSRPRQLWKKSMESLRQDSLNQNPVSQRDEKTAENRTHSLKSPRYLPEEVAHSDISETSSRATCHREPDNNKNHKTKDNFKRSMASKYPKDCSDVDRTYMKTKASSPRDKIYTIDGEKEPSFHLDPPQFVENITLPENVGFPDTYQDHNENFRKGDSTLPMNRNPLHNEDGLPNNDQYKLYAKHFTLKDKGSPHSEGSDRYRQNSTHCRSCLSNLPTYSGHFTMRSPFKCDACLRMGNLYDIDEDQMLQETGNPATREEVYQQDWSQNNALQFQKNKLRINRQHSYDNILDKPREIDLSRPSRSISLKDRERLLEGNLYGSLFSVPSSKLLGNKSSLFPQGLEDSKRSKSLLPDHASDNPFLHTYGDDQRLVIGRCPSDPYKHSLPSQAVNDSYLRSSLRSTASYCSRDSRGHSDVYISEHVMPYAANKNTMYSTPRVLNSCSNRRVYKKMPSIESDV
T3 sequence (Q00959 23-1464 M630W, other chains not shown): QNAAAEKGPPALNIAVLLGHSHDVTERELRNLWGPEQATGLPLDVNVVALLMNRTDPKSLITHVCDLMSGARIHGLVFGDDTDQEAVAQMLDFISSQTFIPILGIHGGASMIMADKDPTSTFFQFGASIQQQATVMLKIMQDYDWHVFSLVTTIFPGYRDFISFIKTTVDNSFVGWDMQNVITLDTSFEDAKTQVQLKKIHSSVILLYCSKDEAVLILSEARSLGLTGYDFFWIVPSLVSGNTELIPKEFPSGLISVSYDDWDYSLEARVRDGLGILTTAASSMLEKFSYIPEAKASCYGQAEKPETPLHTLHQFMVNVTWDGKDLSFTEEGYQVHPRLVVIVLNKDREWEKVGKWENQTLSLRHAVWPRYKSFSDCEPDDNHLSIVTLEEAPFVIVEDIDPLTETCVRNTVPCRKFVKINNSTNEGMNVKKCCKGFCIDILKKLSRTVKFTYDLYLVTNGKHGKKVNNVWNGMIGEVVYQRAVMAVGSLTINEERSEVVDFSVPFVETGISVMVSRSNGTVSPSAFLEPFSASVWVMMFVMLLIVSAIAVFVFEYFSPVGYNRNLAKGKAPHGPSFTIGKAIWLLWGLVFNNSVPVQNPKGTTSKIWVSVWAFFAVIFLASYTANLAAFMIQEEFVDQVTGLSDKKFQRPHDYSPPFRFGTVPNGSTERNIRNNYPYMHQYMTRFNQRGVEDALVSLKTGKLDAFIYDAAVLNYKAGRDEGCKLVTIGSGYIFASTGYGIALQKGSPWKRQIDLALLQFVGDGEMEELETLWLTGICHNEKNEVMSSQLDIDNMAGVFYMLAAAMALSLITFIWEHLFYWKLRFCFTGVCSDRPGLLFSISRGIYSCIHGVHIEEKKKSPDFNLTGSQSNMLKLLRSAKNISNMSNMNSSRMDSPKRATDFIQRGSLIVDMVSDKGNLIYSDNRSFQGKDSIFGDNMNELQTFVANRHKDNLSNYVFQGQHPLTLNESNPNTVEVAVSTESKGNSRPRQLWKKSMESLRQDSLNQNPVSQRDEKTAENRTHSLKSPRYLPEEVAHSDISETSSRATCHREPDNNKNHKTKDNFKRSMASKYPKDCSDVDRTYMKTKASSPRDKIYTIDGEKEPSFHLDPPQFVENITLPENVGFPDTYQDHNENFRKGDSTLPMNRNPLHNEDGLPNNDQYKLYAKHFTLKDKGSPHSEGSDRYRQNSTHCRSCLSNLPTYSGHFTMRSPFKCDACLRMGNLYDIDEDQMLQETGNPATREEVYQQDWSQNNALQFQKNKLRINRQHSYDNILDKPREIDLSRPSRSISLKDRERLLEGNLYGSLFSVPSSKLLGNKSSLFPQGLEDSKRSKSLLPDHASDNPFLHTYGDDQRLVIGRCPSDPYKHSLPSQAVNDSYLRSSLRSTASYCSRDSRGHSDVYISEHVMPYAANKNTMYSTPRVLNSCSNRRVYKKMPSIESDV

SMILES: CC12CC3CC(C)(C1)CC([N+](C)(C)C)(C3)C2 (as salt: iodide) [TMM, N,N,N,3,5-pentamethyladamantan-1-ammonium iodide]
- melting point: > 200 °C (dec.)

SMILES: CN(C)C12CC3CC(C)(CC(C)(C3)C1)C2.Cl [DMM, N,N,3,5-tetramethyladamantan-1-amine hydrochloride]
- melting point: 180 °C
- IC50 (cultured neurons): 28.4 ± 1.4 µM
- IC50 (GluN1/2A receptors [1]; [12]): 16.8 ± 1.5 µM
- Min IMCI/IControl (GluN1/2A receptors [2]; 165 μM DMM, constant pH 9.0): 0.402 ± 0.037
- MCI exhibited (in words) (GluN1/2A receptors [2]; [13]): strong MCI

SMILES: C[C@]12N[C@H](Cc3ccccc31)c1ccccc12 [MK-801]
- Min IMCI/IControl [3]: 0.612 ± 0.019
- Min IMCI/IControl (GluN1/2A receptors [2]; 1 μM MK-801, pH 7.2): 0.459 ± 0.035
- τM of MCI onset (GluN1/2A receptors [2]; 1 μM MK-801, pH 7.2): 1002 ± 135 ms
- Min IMCI/IControl (GluN1/2A receptors [2]; 10 μM MK-801, pH 7.2): 0.097 ± 0.029
- τM of MCI onset (GluN1/2A receptors [2]; 10 μM MK-801, pH 7.2): 311 ± 59 ms
- MCI exhibited (in words) (GluN1/2A receptors [2]; pH 7.2): displayed MCI
- τM faster at 10 μM than at 1 μM MK-801 (GluN1/2A receptors [2]; pH 7.2): ~ 3 fold

SMILES: c1ccc(C2(N3CCCCC3)CCCCC2)cc1 [PCP, phencyclidine]
- Min IMCI/IControl (GluN1/2A receptors [2]; 10 μM PCP, pH 7.2): 0.409 ± 0.063
- MCI exhibited (in words) (GluN1/2A receptors [2]; pH 7.2): displayed MCI

SMILES: CC12CC3CC1(C)C1(C)CC3(CN)CC21C [RL-208]
- Min IMCI/IControl (GluN1/2A receptors [2]; 20 μM RL-208, pH 7.2): 0.275 ± 0.017
- MCI exhibited (in words) (GluN1/2A receptors [2]; pH 7.2): displayed MCI

SMILES: CC12CC3CC(C)(C1)CC([N+](C)(C)C)(C3)C2 [TMM, N,N,N,3,5-pentamethyladamantan-1-ammonium iodide]
- IC50 (GluN1/2A receptors [1]; [12]): 72.3 ± 14.2 µM
- Min IMCI/IControl (GluN1/2A receptors [2]; 1 mM TMM, constant pH 9.0): 0.987 ± 0.039
- MCI exhibited (in words) (GluN1/2A receptors [2]; [13]): no MCI

SMILES: CN1CC[C@@]23CCCC[C@@H]2[C@@H]1Cc1ccc(O)cc13 [dextrorphan]
- Min IMCI/IControl (GluN1/2A receptors [2]; 50 μM dextrorphan, pH 7.2): 0.549 ± 0.043
- MCI exhibited (in words) (GluN1/2A receptors [2]; pH 7.2): displayed MCI

SMILES: CNC1(c2ccccc2Cl)CCCCC1=O (stereo not shown) [ketamine]
- MCI exhibited (in words) (NMDARs): does not exhibit MCI

SMILES: CC12CC3CC(C)(C1)CC(N)(C3)C2 [memantine]
- IC50 [4]: 51.4 ± 5.1 µM
- IC50 [5]: 1.65 ± 0.09 µM
- IC50 [6]: 1.49 ± 0.2 µM
- pKa [7]: 10.4
- MCI at depolarized Vm (in words) (NMDARs; 100 μM memantine, 35 mV): nearly abolished
- Uncharged % ([8]; pH 6.3): 0.008%
- [Uncharged] at 100 μM ([8]; pH 6.3): 8 nM
- Uncharged % ([8]; pH 7.2): 0.063%
- [Uncharged] at 100 μM ([8]; pH 7.2): 63 nM
- Uncharged % ([8]; pH 9.0): 3.8%
- [Uncharged] at 100 μM ([8]; pH 9.0): 3800 nM
- MCI of native NMDARs (in words) [9]: subject to MCI
- LogP [10]: ~ 3
- NMDAR inhibition by intracellular drug (in words) (NMDAR): not to cause NMDAR inhibition
- IC50 [11]: 148 ± 2.8 µM
- IC50 (GluN1/2A receptors [1]; traditional IC50, pH 7.2, WT, −65 mV): 1.71 ± 0.06 µM
- IC50 (GluN1/2A receptors [1]; traditional IC50, pH 9.0, WT): 3.43 ± 0.61 µM
- time constant of current decay following the preinhibition peak (GluN1/2A receptors [2]; 100 μM memantine, pH 7.2, from point-by-point ratios): 46.4 ± 4.1 ms
- time constant of MCI onset (GluN1/2A receptors [2]; 100 μM memantine, pH 7.2, likely faster than decay time constant): < 46.4 ms
- IC50 (GluN1/2A receptors [2]; Memantine MCI IC50, pH 7.2 (Fig. 1h data set)): 71 ± 1.7 µM
- IC50 (GluN1/2A receptors [2]; Memantine MCI IC50, pH 9.0 jump): 8.77 ± 3.26 µM
- IC50 (GluN1/2A receptors [2]; Memantine MCI IC50 of WT receptors, pH 7.2 (additional data set, Fig. 6h)): 68.6 ± 4.8 µM
- potency estimated from few doses (GluN1/2A receptors [2]; tsA201, pH 6.3, read-out: Memantine MCI IC50): 841 ± 5 µM
